{
  "source": "paper PMC6646369",
  "about": "“A new bioavailable fenretinide formulation with antiproliferative, antimetabolic, and cytotoxic effects on solid tumors” (Cell Death & Disease, 2019)",
  "assay_type_in_all_cases": "cell-based, human",
  "key": {"[1]": {"test_system": "LCSC6 lung cancer spheroid cells", "test": "Cell viability assay (CellTiter-Glo)", "experimental": "(§1) Briefly, lung and colorectal spheroids were dissociated mechanically or with TrypLE Express (Thermo Fisher Scientific) respectively and seeded 3 × 10^3 per well in 96-well plates (three replicates per experimental point) in serum-free medium, and incubated in a humidified atmosphere at 37 °C, 5% CO2. Cells were treated with the respective compounds and analysed after the appropriate time period as described in detail in Figure Legends. Luminescence was detected with a DTX880 multimode microplate reader (Beckman Coulter, Brea, CA, USA)."}, "[2]": {"test_system": "CSC 7 colorectal spheroid cells", "test": "Cell viability assay (CellTiter-Glo)", "experimental": "as §1, with “Cell viability upon treatment with NanoFEN, zVAD, NAC, 3-MA, Myriocin, PPMP, GT11, SA and Rapamycin was determined by CellTiter-Glo luminescent cell viability assay (Promega, Madison, WI, USA) according to the manufacturer’s directions. Briefly,” for “Briefly,”"}, "[3]": {"test_system": "reactive oxygen species (ROS) in LCSC6", "test": "Measurement of intracellular ROS levels (CM-H2DCFDA, flow cytometer)", "conditions": "LCSC6, NAC 2mM for 1h, then NanoFEN 4,9µM for 48 hours", "experimental": "An equal number of dissociated spheroid cells (2.5 × 10^5) were seeded in 6-well cell culture plates. Briefly, each cell line was incubated with NanoFEN at IC50 concentration and pre-treated for 1 h with the antioxidant N-Acetyl-Cysteine (NAC). At different times, the cells were washed twice with pre-warmed Phosphate Saline Buffer (PBS) and then incubated in the same buffer containing 5 μM CM-H2DCFDA with DMSO alone at 37 °C. The fluorescence intensity of DCF was measured at 527 nm emission wavelength after excitation at 492 nm at 1 h intervals for up to 48 h using a Flow Cytometer Accuri (Becton Dickinson). An increase in fluorescence intensity as arbitrary units indicated the net generation of intracellular ROS."}, "[4]": {"test_system": "LCSC2 lung cancer spheroid cells", "test": "Cell viability assay (CellTiter-Glo)", "conditions": "LCSC2, GT11 0,5µM plus SA 2µM plus Rapamycin 10nM, 48 hours", "experimental": "as §1, with “Cell viability upon treatment with NanoFEN, zVAD, NAC, 3-MA, Myriocin, PPMP, GT11, SA and Rapamycin was determined by CellTiter-Glo luminescent cell viability assay (Promega, Madison, WI, USA) according to the manufacturer’s directions. Briefly,” for “Briefly,”"}, "[5]": {"test_system": "Aldefluor activity (ALDH) in LCSC6", "test": "Cytofluorimetric analysis of Aldefluor activity", "conditions": "LCSC6, representative analysis; NanoFEN at IC50 dose, Gemcytabine 25 µM; CTRL 38,6%", "experimental": "Values represent mean ± SD of three independent experiments. **P < 0.01; ***P < 0.001 from two-tailed t-test. d Schematic representation of stem-like factors (repressed in grey) emerged from RPPA analysis of lung CSCs treated as described in Fig. 4a. e Cytofluorimetric analysis of Aldefluor activity on LCSC6 treated with NanoFEN at IC50 dose and Gemcytabine 25 μM for 48 h. Values represent mean ± SD of three independent experiments. **P < 0.01; ***P < 0.001 from two-tailed t-test. f qRT-PCR analysis of indicated genes on whole tumor lysates derived from LCSC6 xenografts, untreated or treated with NanoFEN 30 mg/Kg/week and Cis 3 mg/Kg/week and Gem 60 mg/Kg/week (Cis + Gem). Values represent mean ± SD of three independent experiments. *P < 0.05; **P < 0.01 from two-tailed t-test. g Flow cytometry analysis of TOP-GFP.mc-transduced CSC7, untreated and treated with NanoFEN at the IC50 dose 0.2 μM and OXA 10 μM for 48 h. Values represent mean ± SD of three independent experiments. **P < 0.01 from two-tailed t-test. h Volume of xenografts derived from CSC10 transduced with TOP-GFP.mc untreated (black downward triangles) or treated with vehicle or treated NanoFEN 30 mg/Kg/week (green upward triangles) and OXA 5 mg/Kg/week plus 5FU 12.5 mg/Kg/week (red squares). […]"}},
  "data": [
    {"smiles": "Cn1cnc(N)c2ncnc1-2", "note": "[3-MA, 3-Methyladenine]", "values": [
      {"measurement": "effect on NanoFEN-induced death (cell viability)", "setting": "[1]; LCSC6, 3-MA 5 mM plus NanoFEN 4.9 μM, 24 h", "value": "able to counteract"},
      {"measurement": "effect on NanoFEN-induced death (cell viability)", "setting": "[2]; CSC7, 3-MA 5 mM plus NanoFEN 0.2 μM, 24 h", "value": "able to counteract"}
    ]},
    {"smiles": "CC(=O)N[C@@H](CS)C(=O)O", "note": "[NAC, N-Acetyl-L-Cysteine]", "values": [
      {"measurement": "effect on NanoFEN-induced death (cell viability)", "setting": "[1]; LCSC6 pretreated with NAC 2 mM for 1 h, then NanoFEN 4.9 μM, 48 h", "value": "partially rescued"},
      {"measurement": "effect on NanoFEN-induced death (cell viability)", "setting": "[2]; CSC7 pretreated with NAC 2 mM for 1 h, then NanoFEN 0.2 μM, 48 h", "value": "partially rescued"},
      {"measurement": "ROS levels in NanoFEN-treated cells after pretreatment", "setting": "[3]", "value": "reduced"}
    ]},
    {"smiles": "CCCCCCC(=O)CCCCCC/C=C/C[C@@H](O)[C@H](O)[C@@](N)(CO)C(=O)O", "note": "[myriocin]", "values": [
      {"measurement": "effect on NanoFEN-induced death (cell viability)", "setting": "[1]; LCSC6, Myriocin 1 μM plus NanoFEN 4.9 μM, 48 h", "value": "partially protected"},
      {"measurement": "effect on NanoFEN-induced death (cell viability)", "setting": "[2]; CSC7, Myriocin 1 μM plus NanoFEN 0.2 μM, 48 h", "value": "partially protected"}
    ]},
    {"smiles": "CCCCCCCCCCCCCCCC(=O)NC(CN1CCOCC1)C(O)c1ccccc1", "note": "(stereo not shown) [PPMP, 1-phenyl-2-palmitoylamino-3-morpholino-1-propanol]", "values": [
      {"measurement": "effect on NanoFEN-induced death (cell viability)", "setting": "[1]; LCSC6, PPMP 10 μM plus NanoFEN 4.9 μM, 48 h", "value": "unable to block"},
      {"measurement": "effect on NanoFEN-induced death (cell viability)", "setting": "[2]; CSC7, PPMP 10 μM plus NanoFEN 0.2 μM, 48 h", "value": "unable to block"}
    ]},
    {"smiles": "CO[C@H]1C[C@@H]2CC[C@@H](C)[C@@](O)(O2)C(=O)C(=O)N2CCCC[C@H]2C(=O)O[C@H]([C@H](C)C[C@@H]2CC[C@@H](O)[C@H](OC)C2)CC(=O)[C@H](C)/C=C(\\C)[C@@H](O)[C@@H](OC)C(=O)[C@H](C)C[C@H](C)/C=C/C=C/C=C/1C", "note": "[rapamycin]", "values": [
      {"measurement": "effect on the toxic effects of the SA/GT11 combination (cell viability)", "setting": "[1]; LCSC6, GT11 0.5 μM plus SA 2 μM plus Rapamycin 10 nM, 48 h", "value": "significantly potentiated"},
      {"measurement": "effect on the toxic effects of the SA/GT11 combination (cell viability)", "setting": "[2]; CSC7, GT11 0.5 μM plus SA 2 μM plus Rapamycin 10 nM, 48 h", "value": "significantly potentiated"},
      {"measurement": "effect on the toxic effects of the SA/GT11 combination (cell viability)", "setting": "[4]", "value": "significantly potentiated"}
    ]},
    {"smiles": "CCCCCCCCCCCCCCC[C@@H](O)[C@@H](N)CO", "note": "[SA, sphinganine]", "values": [
      {"measurement": "cell viability", "setting": "[1]; LCSC6, 48 hours, SA 2, 4, 6 µM, GT11 0,5, 2, 5 µM", "value": "dose-dependent viability decrease"}
    ]},
    {"smiles": "COC(=O)C[C@H](NC(=O)[C@H](C)NC(=O)[C@@H](NC(=O)OCc1ccccc1)C(C)C)C(=O)CF", "note": "(racemic) [zVAD-fmk, z-Val-Ala-DL-Asp-fluoromethylketone]", "values": [
      {"measurement": "effect on NanoFEN-induced toxicity (cell viability)", "setting": "[1]; LCSC6 pretreated with zVAD 40 μΜ, then NanoFEN 4.9 μM, 48 h", "value": "did not substantially inhibit"},
      {"measurement": "effect on NanoFEN-induced toxicity (cell viability)", "setting": "[2]; CSC7 pretreated with zVAD 40 μΜ, then NanoFEN 0.2 μM, 48 h", "value": "did not substantially inhibit"}
    ]},
    {"smiles": "Nc1ccn([C@@H]2O[C@H](CO)[C@@H](O)C2(F)F)c(=O)n1", "note": "[Gem, gemcitabine]", "values": [
      {"measurement": "ALDH+", "setting": "[5]", "value": "74,6%"}
    ]}
  ]
}
